Assays:
[1] = target: T1, T. brucei UDP-galactose 4′ epimerase (TbGalE) (Trypanosoma brucei, UniProt Q8T8E9); assay: enzyme inhibition assay (details in Text S1); type: biochemical
T1 construct: gene galE; isolated protein; construct and host not described in main text (assay details in Text S1); 1GY8 is the docked crystal structure
T1 sequence (Q8T8E9 1-395): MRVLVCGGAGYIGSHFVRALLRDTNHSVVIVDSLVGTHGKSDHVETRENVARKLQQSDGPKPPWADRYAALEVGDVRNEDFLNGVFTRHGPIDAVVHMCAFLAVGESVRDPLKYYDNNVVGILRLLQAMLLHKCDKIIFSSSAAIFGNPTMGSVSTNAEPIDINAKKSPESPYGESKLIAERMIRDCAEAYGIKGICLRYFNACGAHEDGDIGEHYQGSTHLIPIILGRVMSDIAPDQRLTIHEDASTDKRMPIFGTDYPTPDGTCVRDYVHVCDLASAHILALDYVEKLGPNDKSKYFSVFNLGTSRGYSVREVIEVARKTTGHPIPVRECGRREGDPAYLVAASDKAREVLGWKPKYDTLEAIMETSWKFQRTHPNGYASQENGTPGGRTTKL

[2] = target: T2, H. sapiens mitochondrial 2-enoyl thioester reductase (HsETR1) (Homo sapiens, UniProt Q9BV79); assay: enzyme inhibition assay (details in Text S1); type: biochemical
T2 construct: gene MECR; isolated protein; construct and host not described in main text (assay details in Text S1); 1ZSY is the docked crystal structure
T2 sequence (Q9BV79 54-373): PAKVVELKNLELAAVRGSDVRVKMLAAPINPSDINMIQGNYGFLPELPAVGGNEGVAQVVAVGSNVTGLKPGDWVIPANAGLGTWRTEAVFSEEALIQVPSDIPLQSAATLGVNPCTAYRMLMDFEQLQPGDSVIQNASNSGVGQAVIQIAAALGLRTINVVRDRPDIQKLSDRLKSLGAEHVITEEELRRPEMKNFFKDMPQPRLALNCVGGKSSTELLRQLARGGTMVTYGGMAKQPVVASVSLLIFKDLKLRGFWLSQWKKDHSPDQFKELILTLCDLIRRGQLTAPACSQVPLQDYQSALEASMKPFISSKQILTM

Structure (SMILES): O=S(=O)(O)c1cc(O)c2c(O)c(N=Nc3cccc4ccccc34)c(S(=O)(=O)O)cc2c1 [compound 1, 4,5-dihydroxy-3-(1-naphthyldiazenyl)-2,7-naphthalenedisulfonic acid]
- IC50 [1]: 700 ± 200 nM
- IC50 [2]: ~33.5 µM
